The structures appear in SMILES notation. Bounds are passed on as bounds.

Data set [1] has as its target T1, Peroxisome proliferator-activated receptor alpha (Homo sapiens) (UniProt Q07869).
T1 sequence (whole entry): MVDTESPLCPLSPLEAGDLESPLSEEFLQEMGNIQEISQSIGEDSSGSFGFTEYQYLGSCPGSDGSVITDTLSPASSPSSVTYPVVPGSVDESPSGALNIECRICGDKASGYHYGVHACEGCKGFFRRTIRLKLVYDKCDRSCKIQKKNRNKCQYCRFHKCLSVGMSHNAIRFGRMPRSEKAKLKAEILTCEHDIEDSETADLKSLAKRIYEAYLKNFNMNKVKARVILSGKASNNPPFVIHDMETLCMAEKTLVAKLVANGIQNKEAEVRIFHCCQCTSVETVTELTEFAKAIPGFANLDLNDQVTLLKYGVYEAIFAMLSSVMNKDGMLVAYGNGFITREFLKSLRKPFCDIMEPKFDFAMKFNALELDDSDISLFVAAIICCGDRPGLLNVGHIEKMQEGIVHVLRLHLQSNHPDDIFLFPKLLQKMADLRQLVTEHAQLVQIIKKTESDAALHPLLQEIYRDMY
The data set can be described thus: Partial agonist activity at human PPARalpha expressed in CHO cells co-transfected with Gal4-responsive luciferase reporter plasmid after 24 hrs by transactivation assay relative to fenofibric acid. More on the design: concentration or dose not given beside the values. It counts as functional, cell-based. A general note: In a reporter assay the amount or activity of a reporter protein is the signal.

Data set [2] concerns the target T2, Peroxisome proliferator-activated receptor gamma (Homo sapiens, UniProt P37231).
T2 sequence (P37231 whole entry): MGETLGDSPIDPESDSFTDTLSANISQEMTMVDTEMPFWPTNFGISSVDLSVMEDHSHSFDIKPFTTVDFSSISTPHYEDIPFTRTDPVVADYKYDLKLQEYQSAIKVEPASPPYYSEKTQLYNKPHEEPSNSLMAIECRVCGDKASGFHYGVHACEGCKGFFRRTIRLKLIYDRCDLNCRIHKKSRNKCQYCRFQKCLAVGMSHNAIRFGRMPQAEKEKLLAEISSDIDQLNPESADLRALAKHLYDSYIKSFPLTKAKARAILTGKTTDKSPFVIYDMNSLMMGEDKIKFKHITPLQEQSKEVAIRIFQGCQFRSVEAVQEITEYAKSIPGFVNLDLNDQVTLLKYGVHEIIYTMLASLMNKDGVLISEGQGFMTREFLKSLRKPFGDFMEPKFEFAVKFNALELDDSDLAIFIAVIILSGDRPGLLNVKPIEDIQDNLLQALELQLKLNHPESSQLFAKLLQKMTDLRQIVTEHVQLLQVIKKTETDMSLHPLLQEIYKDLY
Kind of data set: Partial agonist activity at human PPARgamma expressed in CHO cells co-transfected with Gal4-responsive luciferase reporter plasmid after 24 hrs by transactivation assay. The class given is functional, cell-based.

Data set [3] concerns Mus musculus. Kind of data set: Antidiabetic effect in db/db mouse assessed as reduction in plasma triglyceride level at 30 mg/kg/day, po administered daily for 14 days. The class given is functional. The conditions noted are these: 336 h.
In data set [4] the test system is Mus musculus. Kind of data set: Toxicity in db/db mouse assessed as body weight gain at 30 mg/kg/day, po administered daily for 14 days relative to control. The class given is organism-based. Further details: route oral. The conditions noted are these: in vivo, 336 h.
Data set [5] relates to Mus musculus. The data set can be described thus: Antidiabetic effect in db/db mouse assessed as increase in HDL cholesterol level at 30 mg/kg/day, po administered daily for 14 days. The conditions noted are these: 336 h. The class given is functional.
For data set [6], the system named is Mus musculus. The data set can be described thus: Antidiabetic effect in db/db mouse assessed as reduction in plasma glucose level at 30 mg/kg/day, po administered daily for 14 days. The class given is functional. The conditions noted are these: 336 h.
Data set [7] has as its target T3, Peroxisome proliferator-activated receptor alpha (Homo sapiens, UniProt Q07869).
T3 sequence (Q07869 whole entry): T1 sequence (whole entry)
Kind of data set: Partial agonist activity at human PPARalpha expressed in CHO cells co-transfected with Gal4-responsive luciferase reporter plasmid after 24 hrs by transactivation assay. The class given is functional, cell-based.

For data set [8], the target named is T4, Peroxisome proliferator-activated receptor alpha (Mus musculus) (UniProt P23204).
T4 sequence (whole entry): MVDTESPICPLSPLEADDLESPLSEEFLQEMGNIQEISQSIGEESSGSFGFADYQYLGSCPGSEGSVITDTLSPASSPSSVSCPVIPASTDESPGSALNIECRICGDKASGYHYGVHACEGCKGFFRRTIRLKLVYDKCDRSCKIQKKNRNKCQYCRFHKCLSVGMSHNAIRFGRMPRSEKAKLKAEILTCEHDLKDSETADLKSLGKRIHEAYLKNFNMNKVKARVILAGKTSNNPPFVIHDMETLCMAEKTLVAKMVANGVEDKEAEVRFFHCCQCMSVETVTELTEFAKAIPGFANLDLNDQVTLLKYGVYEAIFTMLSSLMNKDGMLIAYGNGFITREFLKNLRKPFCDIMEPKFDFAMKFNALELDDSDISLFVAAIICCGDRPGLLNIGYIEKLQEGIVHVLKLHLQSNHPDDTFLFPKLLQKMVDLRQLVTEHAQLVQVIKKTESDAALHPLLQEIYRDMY
The data set can be described thus: Partial agonist activity at mouse PPARalpha expressed in CHO cells co-transfected with Gal4-responsive luciferase reporter plasmid after 24 hrs by transactivation assay relative to fenofibric acid. It counts as functional, cell-based.

Data set [9] can be described thus: Selectivity ratio of EC50 for mouse PPARalpha to EC50 for human PPARgamma.
For another data set, the species on record is Homo sapiens. Kind of data set: Selectivity ratio of EC50 for human PPARalpha to EC50 for human PPARgamma.
A short description of data set [10]: Cmax in rat at 10 mg/kg, po. More on the design: dose 10 mg/kg, route oral. The class given is ADME, organism-based. The conditions noted are these: in vivo.
Data set [11] has as its system Mus musculus. The data set can be described thus: Toxicity in db/db mouse assessed as effect on food intake at 30 mg/kg/day, po administered daily for 14 days relative to control. It counts as organism-based. More on the design: route oral. The conditions noted are these: in vivo, 336 h.
The nature of data set [12]: Half life in rat at 1 mg/kg, iv. The class given is ADME, organism-based. More on the design: dose 1 mg/kg, route intravenous. The conditions noted are these: in vivo.
Data set [13] can be described thus: Oral bioavailability in rat at 10 mg/kg. It counts as ADME, organism-based. The conditions noted are these: in vivo.
The nature of data set [14]: Clearance in rat at 1 mg/kg, iv. The class given is ADME, organism-based. More on the design: dose 1 mg/kg, route intravenous. The conditions noted are these: in vivo.
The nature of data set [15]: Volume of distribution in rat at 1 mg/kg, iv. The class given is ADME, organism-based. More on the design: dose 1 mg/kg, route intravenous. The conditions noted are these: in vivo.

In turn, `CC(C)(Oc1ccc(C(=O)c2ccc(Cl)cc2)cc1)C(=O)O` displayed an Activity in data set [1] of 100%.

The EC50 is the concentration at which the effect is half-maximal. `Cc1ccc(C(=O)c2nc3ccccc3n2-c2cccc(OC(C)(C)C(=O)O)c2)cc1` displayed a 50% effective concentration (EC50) in data set [2] of 3.3 µM.

What is called inhibition in vivo is the change of the read-out against control, counted positive when it falls. Regarding `CCc1ccc(CCOc2ccc(CC3SC(=O)NC3=O)cc2)nc1` (centres undefined) [PIOGLITAZONE], the inhibition in vivo at 30 mg/kg/day in the data set on Mus musculus [3] stood at 69%; in the data set on Mus musculus [5], 10%; in the data set with Mus musculus [6], 46%. For the same compound, the Activity with Mus musculus [4] amounted to 17%.

With `Cc1ccc(C(=O)c2nccn2C/C=C/c2cccc(OC(C)(C)C(=O)O)c2)cc1`, the EC50 came to 0.62 µM in data set [7] and 12 µM in data set [2]. The Activity in data set [1] was found to be 56%.

`Cc1ccc(C(=O)c2nc(C)c(C)n2C/C=C/c2cccc(OC(C)(C)C(=O)O)c2)cc1`: the EC50 worked out at 3.6 µM in data set [7] and 4.8 µM in [2]. The Activity in data set [1] was determined as 60%.

`Cc1ccc(C(=O)c2nc3ccccc3n2C/C=C/c2cccc(OCC(=O)O)c2)cc1`: the EC50 in [7] was over 10 µM; in [2] it was 4.6 µM.

On to `Cc1ccc(C(=O)c2nc3ccccc3n2C/C=C/c2cccc(OC(C)(C)C(=O)O)c2)cc1`, for which the EC50 in data set [7] worked out at 3.6 µM; in data set [2], 1.7 µM. The Activity in data set [1] turned out to be 42%.

For `Cc1ccc(C(=O)c2nc3c(n2C/C=C/c2cccc(OC(C)(C)C(=O)O)c2)CCCC3)cc1`, the EC50 in [7] was 3.6 µM; in data set [2], 3 µM. The compound further gave an Activity in data set [1] of 60%.

As for `Cc1ccc(C(=O)c2nc3ccccc3n2Cc2cccc(OC(C)(C)C(=O)O)c2)cc1`, in data set [2], the EC50 came out at 6 µM.

Regarding `Cc1ccc(C(=O)c2nc3ccccc3n2/C=C/c2cccc(OC(C)(C)C(=O)O)c2)cc1` [listing 1 of 2 here], the Activity in data set [1] came to 44%; in data set [8], 77%. For the same compound, the Ratio EC50 in data set [9] was 13; in the data set listed under Homo sapiens, 18.

As usually defined, the Cmax is the highest concentration seen after dosing. A word on the half-life: it is the time in which the quantity being followed falls by half. Broadly, the clearance is a measure of how efficiently the substance is removed, as volume per time. Usually Vd stands for a proportionality between amount in the body and measured concentration, not a real space. In the case of `Cc1ccc(C(=O)c2nc3ccccc3n2/C=C/c2cccc(OC(C)(C)C(=O)[O-])c2)cc1.[Na+]`, the Cmax in data set [10] was found to be 4340 ng/mL. The results for the inhibition in vivo at 30 mg/kg/day in the data set with Mus musculus [3], in the data set with Mus musculus [5] and in the data set with Mus musculus [6] were 86%, 38% and 60%, respectively. Also, the Activity is reported as 11% in the data set with Mus musculus [4] and “Non-toxic” with Mus musculus [11]. The compound also yielded a half-life in [12] of 1.45 h. Also, the bioavailability in [13] was 110%. In data set [14], this compound came in with a clearance of 3.48 mL/min/kg. The volume of distribution (Vd) in [15] was 0.747 L/kg.

As for `Cc1ccc(C(=O)c2nc3ccccc3n2/C=C/c2cccc(OC(C)(C)C(=O)O)c2)cc1` [listing 2 of 2 here], the results for the EC50 in data set [7] and in data set [2] were 2.4 µM and 0.13 µM, respectively.

Turning to `Cc1ccc(C(=O)c2nccn2C/C=C/c2cccc(OCC(=O)O)c2)cc1`, the concentration giving a half-maximal response (EC50) in data set [7] and in data set [2] was over 10 µM throughout.
